Measurements reported in ChEMBL document CHEMBL1201862, “PubChem BioAssay data set” (2004).
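A five-concentration, 48-hour dose response in 96-well plates underlies each endpoint, interpolated linearly between surrounding concentrations. At the GI50, growth is halved.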 Calls of active or inactive are those of the source. Rule as the data show it: active = GI50 up to about 1.1 µM and inactive = higher.

Columns and labels:
Experiment in all cases: growth of human tumour cells (NCI), 48 h
LXFL 529 = test system: LXFL 529
M19-MEL = test system: M19-MEL
DMS-114 = test system: DMS-114
XF498 = test system: XF498
RXF 631 = test system: RXF 631
SNB-78 = test system: SNB-78
DLD-1 = test system: DLD-1
DMS-273 = test system: DMS-273
KM-20L2 = test system: KM-20L2

Measured: GI50

Cc1c(C2Cc3ccccc3N2C(=O)/C=C\C(=O)O)c2ccccc2n1C (stereo unspecified)
inactive: LXFL 529 17.3 µM | M19-MEL 19.7 µM | DMS-114 18.7 µM | XF498 17.3 µM | RXF 631 > 100 µM | SNB-78 35.5 µM | DLD-1 35.9 µM | DMS-273 34.8 µM | KM-20L2 25.1 µM

CCOC(=O)c1nc2ccc([N+](=O)[O-])cc2c2c1CCO2
inactive: LXFL 529 > 100 µM | M19-MEL > 100 µM | DMS-114 > 100 µM | XF498 > 100 µM | RXF 631 > 100 µM | SNB-78 > 100 µM | DLD-1 > 100 µM | DMS-273 > 100 µM | KM-20L2 > 100 µM

C/N=c1\ss/c(=N\C(=S)N(C)C)n1C1CCCCC1
inactive: LXFL 529 > 31.6 µM | M19-MEL > 31.6 µM | DMS-114 > 31.6 µM | XF498 > 31.6 µM | RXF 631 > 100 µM | SNB-78 > 31.6 µM | DLD-1 > 100 µM | DMS-273 > 31.6 µM | KM-20L2 > 31.6 µM

Cc1ccc(OC(=O)N2C/C(=C\c3ccccc3)C(=O)/C(=C/c3ccccc3)C2)cc1
inactive: LXFL 529 9.98 µM | M19-MEL 5.53 µM | DMS-114 15.1 µM | XF498 26.2 µM | RXF 631 40.7 µM | SNB-78 28.4 µM | DLD-1 6.84 µM | DMS-273 4.83 µM | KM-20L2 39.7 µM
